Measurements reported in ChEMBL document CHEMBL5608179, “Triptonide induces apoptosis and inhibits the proliferation of ovarian cancer cells by activating the p38/p53 pathway and autophagy” (Bioorg Med Chem, 2024).
pIC50: −log10 of the molar value. Activity calls are given as the source filed them. The rule behind the calls is not given here.

Legend:
A2780 [1] = assay: Cytotoxicity against human A2780 cells assessed as cell viability measured at 4 to 64 nM by MTT assay; assay type: functional, cell-based; conditions: dose 4-64 nM, time 24-72 hrs, TDE = time-dependent effect
A2780 [2] = assay: Induction of cell cycle arrest in human A2780 cells assessed as accumulation of cells at S phase at 4 nM measured after 24 hrs by PI staining based ell Cycle Analysis Kit (KeyGEN) (reference value: 10%); assay type: functional
A2780 [3] = assay: Induction of apoptosis in human A2780 cells assessed as late apoptotic cells at 8 nM measured after 24 to 72 hrs by Annexin V-FITC/PI flow cytometry (reference value: 2.54%); assay type: functional; conditions: time 24-72 hrs
A2780 [4] = assay: Cytotoxicity against human A2780 cells assessed as cell viability in presence of p53 SiRNA 2 measured after 48 hrs by MTT assay; assay type: functional, cell-based
A2780 [5] = assay: Induction of apoptosis in human A2780 cells assessed as necrotic cells in presence of bafilomycin A1 at 800 nM measured after 24 hrs by Annexin V-FITC/PI flow cytometry (reference value: 0.18%); assay type: functional
[6] = Toxicity in BALB/c-nu mouse subcutaneously inoculated with human A2780 cells assessed as morphological changes of lung at 3 to 5 mg/kg, ip administered every day for 20 days by HE staining analysis; assay type: organism-based; conditions: in vivo, sc, 480 h, dose 3-5 mg/kg, time 20 day
A2780 [7] = assay: Induction of apoptosis in human A2780 cells assessed as necrotic cells in presence of SB203580 at 8 nM measured after 24 to 72 hrs by Annexin V-FITC/PI flow cytometry (reference value: 0.39%); assay type: functional; conditions: time 24-72 hrs
A2780 [8] = assay: Induction of cell cycle arrest in human A2780 cells assessed as accumulation of cells at S phase in presence of SB203580 at 4 nM measured after 24 hrs by PI staining based Cell Cycle Analysis Kit (KeyGEN) (reference value: 15%); assay type: functional
A2780 [9] = assay: Cytotoxicity against human A2780 cells assessed as cell viability in presence of p53 SiRNA 1 measured after 48 hrs by MTT assay; assay type: functional, cell-based
A2780 [10] = assay: Induction of cell cycle arrest in human A2780 cells assessed as accumulation of cells at G1 phase at 2 nM measured after 24 hrs by PI staining based ell Cycle Analysis Kit (KeyGEN) (reference value: 53.9%); assay type: functional
A2780 [11] = assay: Inhibition of colony formation in human A2780 cells at 0.25 to 0.5 uM incubated for 24 hrs by EdU staining based assay; assay type: functional, cell-based; conditions: dose 0.25-0.5 µM
Huh-7 = assay: Cytotoxicity against human Huh-7 cells assessed as cell viability measured after 48 hrs by MTT assay; assay type: functional, cell-based; conditions: Huh-7, 48 h
A2780 [12] = assay: Antiproliferative activity against human A2780 cells assessed as number of fluorescent dots in presence of SB203580 at 4 nM measured after 24 hrs by KitkFluor555 Click-iT EdU Kit staining assay; assay type: functional, cell-based
A2780 [13] = assay: Cytotoxicity against human A2780 cells assessed as cell viability measured after 48 hrs by MTT assay; assay type: functional, cell-based; conditions: A2780, 48 h
A2780 [14] = assay: Cytotoxicity against human A2780 cells assessed as cell viability measured in presence of SB203580 after 48 hrs by MTT assay; assay type: functional, cell-based
A2780 [15] = assay: Induction of apoptosis in human A2780 cells assessed as increase in cleaved PARP level measured at 5 to 20 nM by Western blot analysis; assay type: functional, cell-based; conditions: dose 5-20 nM, time 12-48 hrs, TDE = time-dependent effect
[16] = target: MAP kinase p38 (Homo sapiens) (UniProt O15264+Q15759+Q16539+P53778); assay: Activation of p38 in human A2780 cells assessed as increase phosphorylation of p38 at 5 to 20 nM measured after 24 hrs by Western blot analysis; assay type: cell-based; conditions: filed as activator, dose 5-20 nM
A2780 [17] = assay: Induction of cell cycle arrest at S phase in human A2780 cells assessed as increase in cyclin B1 proteins in presence of SB203580 measured at 10 nM after 24 hrs by Western blot analysis; assay type: functional, cell-based
A2780 [18] = assay: Induction of apoptosis in human A2780 cells assessed as viable cells in presence of SB203580 at 8 nM measured after 24 to 72 hrs by Annexin V-FITC/PI flow cytometry (reference value: 94.2%); assay type: functional; conditions: time 24-72 hrs
A2780 [19] = assay: Induction of apoptosis in human A2780 cells assessed as early apoptotic cells at 8 nM measured after 24 to 72 hrs by Annexin V-FITC/PI flow cytometry (reference value: 2.82%); assay type: functional; conditions: time 24-72 hrs
A2780 [20] = assay: Induction of cell cycle arrest in human A2780 cells assessed as accumulation of cells at G2 phase in presence of SB203580 at 4 nM measured after 24 hrs by PI staining based Cell Cycle Analysis Kit (KeyGEN) (reference value: 24.5%); assay type: functional
A2780 [21] = assay: Antiproliferative activity against human A2780 cells assessed as number of fluorescent dots in presence of p53 SiRNA 1 in presence of bafilomycin A1 at 4 nM measured after 24 hrs by KitkFluor555 Click-iT EdU Kit staining assay; assay type: functional, cell-based
A2780 [22] = assay: Induction of p38 expression in human A2780 cells in presence of SB203580 at 5 to 20 nM measured after 24 hrs by Western blot analysis; assay type: functional, cell-based; conditions: dose 5-20 nM
A2780 [23] = assay: Induction of apoptosis in human A2780 cells assessed as late apoptotic cells at 800 nM measured after 24 hrs by Annexin V-FITC/PI flow cytometry (reference value: 1.58%); assay type: functional
A2780 [24] = assay: Induction of apoptosis in human A2780 cells assessed as apoptotic rate measured after 24 to 72 hrs by Annexin V-FITC/PI flow cytometry; assay type: functional, cell-based; conditions: dose 2-8 nM, time 24-72 hrs
A2780 [25] = assay: Induction of cell cycle arrest in human A2780 cells assessed as accumulation of cells at S phase at 1 nM measured after 24 hrs by PI staining based ell Cycle Analysis Kit (KeyGEN) (reference value: 10%); assay type: functional
A2780 [26] = assay: Induction of apoptosis in human A2780 cells assessed as viable cells in presence of bafilomycin A1 at 800 nM measured after 24 hrs by Annexin V-FITC/PI flow cytometry (reference value: 96.1%); assay type: functional
A2780 [27] = assay: Induction of apoptosis in human A2780 cells assessed as increase in cleaved caspase 3 level measured after 12 to 48 hrs by Western blot analysis; assay type: functional, cell-based; conditions: dose 5-20 nM, time 12-48 hrs
[28] = Toxicity in BALB/c-nu mouse subcutaneously inoculated with human A2780 cells assessed as morphological changes of heart at 3 to 5 mg/kg, ip administered every day for 20 days by HE staining analysis; assay type: organism-based; conditions: in vivo, sc, 480 h, dose 3-5 mg/kg, time 20 day
A2780 [29] = assay: Induction of LC3II expression in human A2780 cells at 5 to 20 nM measured after 24 hrs by Western blot analysis; assay type: functional, cell-based; conditions: dose 5-20 nM
A2780 [30] = assay: Induction of apoptosis in human A2780 cells assessed as late apoptotic cells in presence of bafilomycin A1 at 800 nM measured after 24 hrs by Annexin V-FITC/PI flow cytometry (reference value: 1.58%); assay type: functional

Structure (SMILES): CC(C)[C@]12O[C@H]1[C@@H]1O[C@]13[C@]1(O[C@H]1C[C@H]1C4=C(CC[C@@]13C)C(=O)OC4)[C@@H]2O [TRIPTOLIDE]
- Activity (A2780 [1]): Tde
- Activity (A2780 [2]): 30.5%
- Activity (A2780 [3]): 20%
- Activity (A2780 [4]): inactive
- Activity (A2780 [5]): 0.75%
- Activity [6]: Non-Toxic
- Activity (A2780 [7]): 5.87%
- Activity (A2780 [8]): 19.3%
- Activity (A2780 [9]): inactive
- Activity (A2780 [10]): 62.6%
- inhibition (A2780 [11]): Active
- pIC50 (Huh-7): 7.13
- Activity (A2780 [12]): inactive
- pIC50 (A2780 [13]): 5.74
- Activity (A2780 [14]): inactive
- Activity (A2780 [15]): Tde
- Activity [16]: Active
- Activity (A2780 [17]): inactive
- Activity (A2780 [18]): 69%
- Activity (A2780 [19]): 18.6%
- Activity (A2780 [20]): 31.1%
- Activity (A2780 [21]): inactive
- Activity (A2780 [22]): Active
- Activity (A2780 [23]): 9.01%
- Activity (A2780 [24]): Dose-Dependent Effect
- Activity (A2780 [25]): 14.4%
- Activity (A2780 [26]): 90.3%
- Activity (A2780 [27]): Dose-Dependent Effect
- Activity [28]: Non-Toxic
- Activity (A2780 [29]): Active
- Activity (A2780 [30]): 3.96%
